Measurements: US10910085B2, “Methods of making polypeptides with non-standard amino acids using genomically recoded organisms” (President and Fellows of Harvard College, priority 2014, dated 2021)

Legend:
[1] = test system: genomically recoded organism (GRO); test: titration of optimal NSAA concentration by GFP_UAG fluorescence assay (FL/ODmax); type: cell-based, E. coli; settings: GRO bearing synthetase/tRNA and GFP_UAG reporter plasmids; NSAA range 10 uM to 10 mM
Experimental: First, genomically recoded organisms (“GRO”) as described above were cultured in triplicate in LB-Lennox broth, across a dilution series from 1 uM to 10 mM (incl. 0 uM) NSAA in a 96-well plate. GRO growth (OD600) was kinetically monitored to quantify growth rates and reductions were measured as time to OD600=0.4 and Vmax (dODmax/dt). These experiments helped define the sub-toxic concentration range of an NSAA of interest. Second, the GRO strain was transformed with an L-arabinose-inducible plasmid bearing the synthetase/tRNA that are specific for the NSAA side chain reactivity being evaluated. See Lajoie, M. J. et al. Genomically recoded organisms expand biological functions. […] Only GROs will read these codons as sense codons, not terminate the GFP_UAG translation, and generate NSAA-containing GFP that fluoresces. Patent translation of GFP_UAG (e.g., fluorescence) requires culture in NSAA and transformation with a plasmid bearing the proper synthetase/tRNA pair to use that NSAA. In this way, GFP fluorescence can be a quantitative metric for NSAA-containing protein translation. […] Due to auto-fluorescence of LB-Lennox media, the cells were washed twice in phosphate-buffered saline (pH 7.2) by centrifugation at 4,000×g for 5 minutes. […] GFP translation was normalized by OD600 as fluorescence divided by OD600 when measured (FL/OD), and optimal concentration of NSAA was FL/ODmax.

[2] = test system: genomically recoded organism (GRO); type: cell-based, E. coli; settings: pAzF held constant at 1 mM; for reductions in FL/OD (GFP fluorescence divided by OD600): alkyne containing compound varied from 10 uM-10 mM, GRO culture; for reductions in OD consistent with reaction with pAzF: canonical amino acid controls
Description: To meet the third criteria, NSAA expression using previously evolved amino acyl synthetase/tRNA pairs was used. Synthetases charge a cognate amino acid substrate onto the cognate tRNA pair. An amino acid, a synthetase, and a tRNA form a triad that is required to make that amino acid competent for translation and addition to the nascent polypeptide chain. Amino acid/synthetase/tRNA triads are generally specific thereby preserving the fidelity of the translation of genetic code into proteins. As such, new synthetase/tRNA pairs that function specifically with each other are generated and used to add new NSAAs to the genetic code (or to evaluate the bio-orthogonality of bond-forming NSAA candidates). Alternatively, known synthetase/tRNA pairs are used to evaluate the bio-orthgonality of bond-forming NSAA candidate pairs.
First, genomically recoded organisms (“GRO”) as described above were cultured in triplicate in LB-Lennox broth, across a dilution series from 1 uM to 10 mM (incl. 0 uM) NSAA in a 96-well plate. GRO growth (OD600) was kinetically monitored to quantify growth rates and reductions were measured as time to OD600=0.4 and Vmax (dODmax/dt). These experiments helped define the sub-toxic concentration range of an NSAA of interest. Second, the GRO strain was transformed with an L-arabinose-inducible plasmid bearing the synthetase/tRNA that are specific for the NSAA side chain reactivity being evaluated. See Lajoie, M. J. et al. Genomically recoded organisms expand biological functions. Science 342, 357-360, doi:10.1126/science.1241459 (2013) hereby incorporated by reference in its entirety. […] Only GROs will read these codons as sense codons, not terminate the GFP_UAG translation, and generate NSAA-containing GFP that fluoresces. Patent translation of GFP_UAG (e.g., fluorescence) requires culture in NSAA and transformation with a plasmid bearing the proper synthetase/tRNA pair to use that NSAA. In this way, GFP fluorescence can be a quantitative metric for NSAA-containing protein translation. […] Due to auto-fluorescence of LB-Lennox media, the cells were washed twice in phosphate-buffered saline (pH 7.2) by centrifugation at 4,000×g for 5 minutes. After the second wash, the cells were resuspended in 150 uL PBS for measurement of growth (OD600) and GFP fluorescence (excitation 388 nm, emission 510 nm) using a Biotek Synergy H1/H4 or a Molecular Devices M5 Spectrophotometer. GFP translation was normalized by OD600 as fluorescence divided by OD600 when measured (FL/OD), and optimal concentration of NSAA was FL/ODmax.
Once optimal NSAA concentration was determined, a candidate NSAA is tested to determine whether it impairs translation of the other cognate pair. […] After culture and washing as above, FL/OD was measured and plotted as a function of the NSAA being varied. […]

## [N-]=[N+]=Nc1ccc(C[C@H](N)C(=O)O)cc1 [pAzF, para-azido-phenylalanine]
[1]
  optimal concentration of NSAA (FL/ODmax): 1 mM

## C#CCONCC(=O)O [pPrG, propargyl-oxyglycine]
[2]
  reductions in FL/OD (GFP fluorescence divided by OD600): no reductions in FL/OD

## N[C@@H](CO)C(=O)O [serine]
[2]
  reductions in OD consistent with reaction with pAzF: do not show any reductions in OD

## N[C@@H](Cc1ccc(O)cc1)C(=O)O [tyrosine]
[2]
  reductions in OD consistent with reaction with pAzF: do not show any reductions in OD

## C1#CCCCCCC1 [unsubstituted cyclo-octynes]
[2]
  reductions in FL/OD (GFP fluorescence divided by OD600): no reductions in FL/OD
